18 compounds from patent publication EP4755880A1, “SUBSTITUTED NITROGEN-CONTAINING BICYCLIC COMPOUND AND USE THEREOF” (Sunshine Lake Pharma Co., Ltd., priority 2023, dated 2025) can be followed below.

The test system of assay [1] is MDA-MB-436 cells. Nature of the assay: Inhibition of proliferation of MDA-MB-436 cells (CellTiter-Glo). The following applies: Homo sapiens, MDA-MB-436, 168 h, 7 days incubation. The format is cell-based. Here is the method:
• 1. Cell Pretreatment: MDA-MB-436 cells were cultured in DMEM + 10% FBS + 1% penicillin-dip antibiotics + 1% ITS + 16 µg/ml glutathione. Cells in the logarithmic growth phase were digested with trypsin-EDTA, centrifuged and resuspended, and then seeded at a rate of 500-1000 cells/well in sterile 96-well opaque plates, 90 µl per well. After seeding, the cell culture plates were incubated overnight at 37°C with 5% CO2 before drug treatment. • 2. Drug treatment of MDA-MB-436 cells: The test compound was prepared as a 10 mM stock solution using DMSO. The drug was then diluted to a 10× working solution using growth medium (the compound was started at 100 µM and diluted 4-fold to achieve 9 concentrations). 10 µl of the 10× working solution was added to each well to achieve final drug concentrations of 10000, 2500, 625, 156, 39, 9.7, 2.4, 0.61, and 0.152 nM, respectively. Blank control wells containing the same DMSO concentration were also included, with three replicates for each concentration. After drug addition, the cells were incubated at 37°C with 5% CO2 for 7 days. • 3. After incubation, 100 µl of CellTiter-Glo® Reagent was added to each well, and luminescence was measured. The IC50 value of cell proliferation inhibition was calculated using GraphPad software to fit the curve. Table E: Results of the inhibitory effect of the compound of this invention on the proliferation of MDA-MB-436 cells.
(In ATP-based viability assays light output follows the ATP content of the culture.)

The target of assay [2] is PARP2 (Homo sapiens, UniProt Q9UGN5). Kind of assay: biochemical.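 Further: PARP2 enzyme ELISA on histone-coated plates, Strep-HRP detection with chemiluminescence read-out, 10 min compound preincubation with enzyme, inhibition scaled between Max and Min signal controls.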
Assay [3] has as its system DLD-1 BRCA2(-/-) cells. Nature of the assay: Inhibition of proliferation of DLD-1 BRCA2(-/-) cells (CTG method). In kind it is cell-based. The following applies: Homo sapiens, DLD-1, 168 h; 7 days incubation, CellTiter-Glo. The method, then:
• 1. Cell Pretreatment: DLD-1 BRCA2(-/-) cells were cultured in growth medium 1640 + 10% FBS (fetal bovine serum) + 1% Penicillin-Streptomycin. Cells in the logarithmic growth phase were digested with trypsin-EDTA, centrifuged, and resuspended. DLD-1 BRCA2(-/-) cells were seeded at 1,000 cells/well in sterile 96-well opaque plates, 75 µl per well. After seeding, the cell culture plates were incubated overnight at 37 °C with 5% CO2 before adhesion, followed by treatment with the test compounds. • 2. DLD-1 BRCA2(-/-) Cell Drug Treatment: The test compound was prepared as a 10 mM stock solution using DMSO. The test compound was then diluted to a 4× working solution using growth medium (starting at 40 µM, with 9 4-fold dilutions). 25 µl of 4× working solution was added to each well to achieve final concentrations of 10000, 2500, 625, 156, 39, 9.7, 2.4, 0.61, and 0.152 nM, respectively. Blank control wells containing the same DMSO concentration were also included, with three replicates for each concentration. After adding the test compound, the cells were incubated at 37 °C with 5% CO2 for 7 days. • 3. After incubation, 100 µl of CellTiter-Glo® Reagent was added to each well, and […] intensity was measured. A curve was fitted using GraphPad software, and the IC50 value for cell proliferation inhibition was calculated.

In assay [4] the target is PARP1 (Homo sapiens, UniProt P09874). Nature of the assay: Inhibition of PARP1 enzyme activity (ELISA, chemiluminescence). As to conditions: for IC50: ELISA, histone-coated plate, NAD+, 60 min at 25 °C; for Selectivity PARP2/PARP1: ratio of PARP2 IC50 to PARP1 IC50. The format is biochemical. (In general: An ELISA detects its analyte on a solid surface through an enzyme-linked reagent.)
PARP1, sequence (P09874 whole entry): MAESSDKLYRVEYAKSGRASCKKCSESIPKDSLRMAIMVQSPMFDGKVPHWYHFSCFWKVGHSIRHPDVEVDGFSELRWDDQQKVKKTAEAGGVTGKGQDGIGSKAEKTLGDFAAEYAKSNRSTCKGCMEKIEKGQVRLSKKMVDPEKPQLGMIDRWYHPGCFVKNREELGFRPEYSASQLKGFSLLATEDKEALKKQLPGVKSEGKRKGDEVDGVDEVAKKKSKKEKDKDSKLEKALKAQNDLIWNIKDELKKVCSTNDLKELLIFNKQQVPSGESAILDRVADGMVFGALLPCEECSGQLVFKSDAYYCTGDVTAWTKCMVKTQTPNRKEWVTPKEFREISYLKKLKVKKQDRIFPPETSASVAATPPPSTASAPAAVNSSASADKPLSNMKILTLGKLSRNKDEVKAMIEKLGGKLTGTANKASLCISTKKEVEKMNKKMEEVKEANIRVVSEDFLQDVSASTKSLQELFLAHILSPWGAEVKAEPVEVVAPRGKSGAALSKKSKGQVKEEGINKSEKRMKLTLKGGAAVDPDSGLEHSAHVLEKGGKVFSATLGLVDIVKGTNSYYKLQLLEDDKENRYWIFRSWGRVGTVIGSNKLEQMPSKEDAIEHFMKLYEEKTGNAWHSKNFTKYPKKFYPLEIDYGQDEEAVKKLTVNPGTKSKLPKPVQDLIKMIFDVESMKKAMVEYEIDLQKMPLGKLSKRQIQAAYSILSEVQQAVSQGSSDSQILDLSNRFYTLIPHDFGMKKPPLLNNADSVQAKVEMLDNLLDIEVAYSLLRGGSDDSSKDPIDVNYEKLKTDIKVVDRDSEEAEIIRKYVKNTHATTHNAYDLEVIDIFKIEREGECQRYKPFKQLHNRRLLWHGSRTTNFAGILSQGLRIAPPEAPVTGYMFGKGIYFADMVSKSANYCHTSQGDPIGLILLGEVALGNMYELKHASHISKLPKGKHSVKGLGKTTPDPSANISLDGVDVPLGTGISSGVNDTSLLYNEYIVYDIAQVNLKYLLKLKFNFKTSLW
Method: Experimental Objective: To evaluate the inhibitory effect of the compounds of the present invention on the enzyme activities of PARP1 and PARP2 using ELISA.
• 1. histone-coated 384-well plates was prepared: 25 µL of histone solution was added to each well and incubated overnight at 4 °C. • 2. PBST buffer, blocking buffer (PBS buffer with 5% BSA and 0.05% Tween-20 added) and detection buffer (20 mM HEPES pH 7.5 + 100 mM NaCl + 2 mM DTT + 0.002% Tween-20 + 0.1% BSA) were prepared. • 3. The histone-coated 3 84-well plate was washed three times with PBST buffer, blocked at room temperature with 50 µL blocking buffer for 1 hour, and then washed three times with PBST buffer. • 4. Test compounds were prepared as 2000-fold stock solutions in DMSO. 50 nL of the stock solution was mixed with 19.95 µL detection buffer, and 5 µL of the gradient-diluted test compound was transferred to each well. • 5. Enzymatic reaction (PARP1): PARP1 & DNA mix was pre-incubated at 25 °C for 10 minutes. 10 µL of the PARP1 & DNA mix was added to each well and incubated with the test compound at room temperature for 10 minutes. […] Finally, the 384-well plate was washed three times with PBST buffer. Enzymatic reaction (PARP2): PARP2 was pre-incubated at 25 °C for 10 minutes. 10 µL of PARP2 was added to each well and incubated with the test compound at room temperature for 10 minutes. […] Finally, the 384-well plate was washed three times with PBST buffer. • 6. Detection (PARP1): 20 µL of anti-Poly/Mono-ADP Ribose Rabbit mAb was added and incubated at room temperature for 1.5 hours, followed by three washes of the 384-well plate with PBST buffer. Then, 20 µL of diluted anti-rabbit IgG, HRP-linked Antibody (diluted 1:2000 in blocking buffer) was added and incubated at room temperature for 1 hour. After washing the plate three times with PBST buffer, 25 µL of a 1:1 mixture of Femto-ECL Substrate A and Femto-ECL Substrate B was added. Detection (PARP2): 25 µL of Strep-HRP was added and incubated at room temperature for 1 hour, followed by three washes of the 384-well plate with PBS buffer. Then, 25 µL of a 1:1 mixture of Femto-ECL Substrate A and Femto-ECL Substrate B was added. • 7. Chemiluminescence intensity was measured using an Envision multimode microplate reader. • 8. Data Processing
The inhibition rate was calculated in Excel using formula (1). inh% = (Max−Signal)/(Max−Min)*100 [formula]
The IC50 value was obtained by fitting the data in XL-Fit using formula (2). Y = bottom + (top−bottom)/(1+(IC50/X)*HillSlope); [formula] wherein Y is the inhibition percentage and X is the compound concentration.

PARP2, sequence (Q9UGN5 whole entry): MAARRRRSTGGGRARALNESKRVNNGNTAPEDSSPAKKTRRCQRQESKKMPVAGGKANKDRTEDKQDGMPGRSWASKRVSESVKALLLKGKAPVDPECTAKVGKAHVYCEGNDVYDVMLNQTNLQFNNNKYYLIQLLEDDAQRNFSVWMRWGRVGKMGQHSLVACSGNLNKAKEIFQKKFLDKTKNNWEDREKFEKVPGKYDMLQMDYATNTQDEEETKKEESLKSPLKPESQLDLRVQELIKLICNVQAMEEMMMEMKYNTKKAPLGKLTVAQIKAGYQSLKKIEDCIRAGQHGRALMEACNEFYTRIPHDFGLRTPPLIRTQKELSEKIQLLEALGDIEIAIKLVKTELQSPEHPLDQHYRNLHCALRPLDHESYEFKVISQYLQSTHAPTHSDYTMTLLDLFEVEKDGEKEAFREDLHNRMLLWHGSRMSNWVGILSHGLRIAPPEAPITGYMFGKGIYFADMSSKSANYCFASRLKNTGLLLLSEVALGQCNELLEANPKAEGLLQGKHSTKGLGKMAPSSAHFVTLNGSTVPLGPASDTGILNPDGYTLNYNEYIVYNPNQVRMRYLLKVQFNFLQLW

By IC50 is commonly meant the concentration at which inhibition is half-maximal. Low readings indicate greater potency in that assay, high ones weaker potency in that assay. As to `CNC(=O)c1ccc(N2CCN(Cc3cc(Oc4ccccc4)c4nc(C)c(=O)[nH]c4c3)CC2)c(F)n1` [Example 4, 6-fluoro-N-methyl-5-(4-((2-methyl-3-oxo-8-phenoxy-3,4-dihydroquinoxalin-6-yl)methyl)piperazin-1-yl)picolinamide], the IC50 was 5.3 nM in assay [1], 1780 nM in assay [2], 4.7 nM in assay [3] and 1.84 nM in assay [4]. Further, the “Selectivity PARP2/PARP1” value in assay [4] was 968.5.
Turning to `CNC(=O)c1ccc(N2CCN(Cc3cc(Nc4ccccc4)c4nc(C)c(=O)[nH]c4c3)CC2)c(F)n1` [Example 5, 6-fluoro-N-methyl-5-(4-((2-methyl-3-oxo-8-(phenylamino)-3,4-dihydroquinoxalin-6-yl)methyl)piperazin-1-yl)picolinamide], the IC50 in assay [1] was less than 0.038 nM; in assay [3], 6.1 nM.
Turning to `CNC(=O)c1ccc(N2CCN(Cc3cc(Oc4ccc(F)cc4)c4nc(C)c(=O)[nH]c4c3)CC2)c(F)n1` [Example 6, 6-fluoro-5-(4-((8-(4-fluorophenoxy)-2-methyl-3-oxo-3,4-dihydroquinoxalin-6-yl)methyl)piperazin-1-yl)-N-methylpicolinamide], the IC50 was determined as 6.8 nM in assay [1], 839 nM in assay [2], 14.5 nM in assay [3] and 1.2 nM in assay [4]. Moreover, the “Selectivity PARP2/PARP1” value in assay [4] came out at 700.1.
In the same order, the values of `CNC(=O)c1ccc(N2CCN(Cc3cc(-c4ccccc4F)c4nc(C)c(=O)[nH]c4c3)CC2)c(F)n1` [Example 8, 6-fluoro-5-(4-((8-(2-fluorophenyl)-2-methyl-3-oxo-3,4-dihydroquinoxalin-6-yl)methyl)piperazin-1-yl)-N-methylpicolinamide] are 23.6 nM, 2690 nM, 32.2 nM, 4.1 nM and 657.2.
For `CNC(=O)c1ccc(N2CCN(Cc3cc(-c4cccc(F)c4)c4nc(C)c(=O)[nH]c4c3)CC2)c(F)n1` [Example 9, 6-fluoro-5-(4-((8-(3-fluorophenyl)-2-methyl-3-oxo-3,4-dihydroquinoxalin-6-yl)methyl)piperazin-1-yl)-N-methylpicolinamide], in that order: 8.1 nM, 1140 nM, 11.1 nM, 1.61 nM and 705.3.
On to `CNC(=O)c1ccc(N2CCN(Cc3cc(-c4ccc(F)cc4)c4nc(C)c(=O)[nH]c4c3)CC2)c(F)n1` [Example 10, 6-fluoro-5-(4-((8-(4-fluorophenyl)-2-methyl-3-oxo-3,4-dihydroquinoxalin-6-yl)methyl)piperazin-1-yl)-N-methylpicolinamide], for which the IC50 in assay [1] is 1.7 nM; in assay [3], 7.5 nM.
Consider `CNC(=O)c1ccc(N2CCN(Cc3cc(-c4cccnc4)c4nc(C)c(=O)[nH]c4c3)CC2)c(F)n1` [Example 11, 6-fluoro-N-methyl-5-(4-((2-methyl-3-oxo-8-(pyridin-3-yl)-3,4-dihydroquinoxalin-6-yl)methyl)piperazin-1-yl)picolinamide], for which the IC50 was 10.7 nM in assay [1], 676 nM in assay [2], 12.9 nM in assay [3] and 3.01 nM in assay [4]. Besides, the “Selectivity PARP2/PARP1” value in assay [4] stood at 224.6.
For `CNC(=O)c1ccc(C2=CCN(Cc3cc(OC(F)F)c4nc(C)c(=O)[nH]c4c3F)CC2)c(F)n1` [Example 16, 1'-((8-(difluoromethoxy)-5-fluoro-2-methyl-3-oxo-3,4-dihydroquinoxalin-6-yl)methyl)-2-fluoro-N-methyl-1',2',3',6'-tetrahydro-[3,4'-bipyridine]-6-carboxamide], the IC50 in assay [1] is 6.2 nM; in assay [2] it was greater than 10000 nM; in assay [4], 2.8 nM. Besides, the “Selectivity PARP2/PARP1” value in assay [4] is greater than 3625.
Take `CNC(=O)c1ccc(N2CCN(Cc3cc(OC4CC(F)(F)C4)c4nc(C)c(=O)[nH]c4c3)CC2)c(F)n1` [Example 18, 5-(4-((8-(3,3-difluorocyclobutoxy)-2-methyl-3-oxo-3,4-dihydroquinoxalin-6-yl)methyl)piperazin-1-yl)-6-fluoro-N-methylpicolinamide]: the IC50 in assay [1] is 0.9 nM; in assay [2] it was 93.3 nM; in assay [3], 7.9 nM; in assay [4], 1.7 nM. The “Selectivity PARP2/PARP1” value in assay [4] came out at 54.7.
In the same order, the values of `CNC(=O)c1ccc(N2CCN(Cc3cc(C4CC4)c4nc(C)c(=O)[nH]c4c3F)CC2)c(F)n1` [Example 19, 5-(4-((8-cyclopropyl-5-fluoro-2-methyl-3-oxo-3,4-dihydroquinoxalin-6-yl)methyl)piperazin-1-yl)-6-fluoro-N-methylpicolinamide] are 4.2 nM, 70 nM, 1.5 nM, 0.7 nM and 107.3.
In the same order, the values of `C#Cc1cc(CN2CCN(c3ccc(C(=O)NC)nc3F)CC2)cc2[nH]c(=O)c(C)nc12` [Example 20, 5-(4-((8-ethynyl-2-methyl-3-oxo-3,4-dihydroquinoxalin-6-yl)methyl)piperazin-1-yl)-6-fluoro-N-methylpicolinamide] are 3.3 nM, 68.9 nM, 2.4 nM, 0.6 nM and 124.8.
`C=Cc1cc(CN2CCN(c3ccc(C(=O)NC)nc3F)CC2)cc2[nH]c(=O)c(C)nc12` [Example 25, 6-fluoro-N-methyl-5-(4-((2-methyl-3-oxo-8-vinyl-3,4-dihydroquinoxalin-6-yl)methyl)piperazin-1-yl)picolinamide]: the IC50 was found to be 3.5 nM in assay [1] and 1.3 nM in assay [3].
Take `CC#Cc1cc(CN2CCN(c3ccc(C(=O)NC)nc3C)CC2)cc2[nH]c(=O)c(C)nc12` [Example 38, N,6-dimethyl-5-(4-((2-methyl-3-oxo-8-(prop-1-yn-1-yl)-3,4-dihydroquinoxalin-6-yl)methyl)piperazin-1-yl)picolinamide]: the IC50 came to 5 nM in assay [1] and 15.1 nM in assay [3].
For `CNC(=O)c1ccc(N2CCN(Cc3cc(C#Cc4ccccc4)c4nc(C)c(=O)[nH]c4c3F)CC2)c(F)n1` [Example 53, 6-fluoro-5-(4-((5-fluoro-2-methyl-3-oxo-8-(phenylethynyl)-3,4-dihydroquinoxalin-6-yl)methyl)piperazin-1-yl)-N-methylpicolinamide], in that order: 3940 nM and 963 nM.
As for `CNC(=O)c1ccc(N2CCN(Cc3cc(OC(F)F)c4nc(C(F)F)c(=O)[nH]c4c3)CC2)c(F)n1` [Example 56, 5-(4-((8-(difluoromethoxy)-2-(difluoromethyl)-3-oxo-3,4-dihydroquinoxalin-6-yl)methyl)piperazin-1-yl)-6-fluoro-N-methylpicolinamide], the IC50 in assay [1] stood at 14.7 nM; in assay [3], 8.3 nM.
For `Cc1nc2c(OC(F)F)cc(CN3CCN(c4ccc(C(=O)NC5CC5)nc4F)CC3)c(F)c2[nH]c1=O` [Example 61, N-cyclopropyl-5-(4-((8-(difluoromethoxy)-5-fluoro-2-methyl-3-oxo-3,4-dihydroquinoxalin-6-yl)methyl)piperazin-1-yl)-6-fluoropicolinamide], in that order: 20.3 nM and 8.59 nM.
For `CNC(=O)c1ccc(N2CCN(Cc3cc(-c4ccnn4C)c4nc(C)c(=O)[nH]c4c3)CC2)c(F)n1` [Example 68, 6-fluoro-N-methyl-5-(4-((2-methyl-8-(1-methyl-1H-pyrazol-5-yl)-3-oxo-3,4-dihydroquinoxalin-6-yl)methyl)piperazin-1-yl)picolinamide], the IC50 in assay [1] was 35.6 nM; in assay [3] it was 33.3 nM.
For the compound `CNC(=O)c1ccc(N2CCN(Cc3cc(-c4cnn(C)c4)c4nc(C)c(=O)[nH]c4c3)CC2)c(F)n1` [Example 70, 6-fluoro-N-methyl-5-(4-((2-methyl-8-(1-methyl-1H-pyrazol-4-yl)-3-oxo-3,4-dihydroquinoxalin-6-yl)methyl)piperazin-1-yl)picolinamide], the IC50 turned out to be 13.9 nM in assay [1] and 14.2 nM in assay [3].
